# Source: patent US20110082080A1, “COMPOSITIONS AND METHODS OF USING THE HUMAN PROISLET PEPTIDE RECEPTOR” (CUREDM GROUP HOLDINGS, LLC, priority 2007, published 2011)
# Where no end group is shown, it is not given here.
# What was measured:
# NOD mice = assay: Pilot non obese diabetic (NOD) mouse study with lysophylline (LSF); format: in vivo; details: one NOD mouse per group; peptides given plus LSF; not statistically significant study; FIG. 11
# Excerpt: The non obese diabetic (NOD) model is used as a model for type 1 autoimmune diabetes. This form of diabetes is the most challenging in that the underlying damage to the pancreas and its insulin production is due to autoimmune attack. Therefore, in order to show definitive islet neogenesis in this form of diabetes an immune tolerance agent must be used in combination with HIP. The NOD mouse model is extremely difficult model because many of the mice may only transiently become diabetic and go into remission, whereas others develop severe diabetes. The timing intervention in this transgenic mouse model is difficult to determine.
# In a preliminary study that utilizing the immune tolerance agent, lysophylline (LSF) under development, three NOD mice that became diabetic and were randomized to placebo plus LSF, HIP2 plus LSF and HIP2B plus LSF.
# [1] = tested on: streptozotcin-treated mice rendered diabetic; assay: Repeated study in streptozotocin-treated diabetic mice with HIP2 and Optimized HIP2B; format: in vivo, mouse; details: for Total Islet Mass (μm2) / Total Islets: Table 3; for Total Islet Mass (% increase) / Total Islets (% increase): Table 3, vs placebo
# Excerpt: Differences between the two groups of HIP2B and placebo were statistically significant for both an increase in total islet mass (p=0.040) and total islet numbers (p=0.032), with the HIP2B group indicating larger values for both islet mass (M=416714.67, SD=121,389.01) and islet number (M=94, SD=32.74) than for the placebo group (islet mass: M=127410.67, SD=96930.78, islet number: M=31.67, SD=15.28).
# PANC-1 cells = assay: Impact of HIP and Optimized HIP peptides on PANC-1 cell morphology; format: cell-based, human; details: treated four days; for cell morphology changes through 7 days: pictures days 1, 2, 3, 5, 7 at 200×, FIG. 9B
# Procedure: The cells were treated with HIP and Optimized HIP peptides for four days. […] FIG. 9B show the progression of the cell morphology changes through 7 days, with the control on the top, HIP2 in the middle, and HIP2B on the bottom. Pictures were taken on days 1, 2, 3, 5, and 7 at 200× magnification.
# [2] = tested on: ductal fraction of human pancreatic cells; assay: HIP2B activity in human pancreatic ductal tissue culture (CK19, nuclei and insulin staining); format: cell-based; details: cultured 10 days in collagen matrix, treated every other day; FIG. 10
# Procedure: The ductal fraction of human pancreatic cells were cultured for 10 days in a collagen matrix and then treated every other day with HIP2B. Cells were labeled by double antibody staining for CK 19, a marker for ductal tissue, and DAP1 staining to show nuclei and insulin.
# HIP receptor/EXTL3 = biological target: T1, HIP receptor/EXTL3 (Homo sapiens, UniProt O43909); assay: Cy3 immunofluorescence of HIP receptor/EXTL3 translocation in PANC-1 cells; format: cell-based; details: for HIP receptor/EXTL3 trafficking from cytoplasmic membrane to nucleus: trypsin and serum free medium, FIG. 12
# T1 construct: It was observed that EXTL3 is expressed in PANC-1 cells; endogenous in cells; host or cells: PANC-1 (human pancreatic ductal/epithelioid cell line)
# T1 sequence (O43909 1-919): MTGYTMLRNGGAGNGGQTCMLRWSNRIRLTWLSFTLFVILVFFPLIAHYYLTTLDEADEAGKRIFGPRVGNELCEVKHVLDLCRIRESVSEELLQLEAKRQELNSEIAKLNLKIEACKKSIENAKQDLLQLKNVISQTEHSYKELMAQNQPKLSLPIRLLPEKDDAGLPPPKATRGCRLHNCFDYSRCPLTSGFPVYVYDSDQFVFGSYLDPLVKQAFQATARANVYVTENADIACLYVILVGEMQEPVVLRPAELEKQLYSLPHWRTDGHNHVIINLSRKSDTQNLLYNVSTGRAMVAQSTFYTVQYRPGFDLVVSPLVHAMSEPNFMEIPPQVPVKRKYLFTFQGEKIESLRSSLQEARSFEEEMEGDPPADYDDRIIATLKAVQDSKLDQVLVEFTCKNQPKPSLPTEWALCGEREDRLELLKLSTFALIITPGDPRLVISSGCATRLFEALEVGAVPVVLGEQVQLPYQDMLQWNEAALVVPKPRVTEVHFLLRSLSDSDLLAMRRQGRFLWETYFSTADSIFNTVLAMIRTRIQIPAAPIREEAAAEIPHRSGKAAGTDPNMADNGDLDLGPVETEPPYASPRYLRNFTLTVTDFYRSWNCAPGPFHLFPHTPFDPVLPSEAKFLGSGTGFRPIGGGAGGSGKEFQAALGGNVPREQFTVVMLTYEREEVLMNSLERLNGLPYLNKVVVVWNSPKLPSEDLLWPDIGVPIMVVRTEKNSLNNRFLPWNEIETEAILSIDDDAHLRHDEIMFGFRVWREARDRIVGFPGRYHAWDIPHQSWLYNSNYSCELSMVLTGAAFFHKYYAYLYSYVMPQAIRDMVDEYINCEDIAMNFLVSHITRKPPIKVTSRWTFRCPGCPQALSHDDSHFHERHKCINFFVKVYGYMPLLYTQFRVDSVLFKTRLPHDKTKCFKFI
# Procedure: Impact of HIP2B and HIP2 on HIP Receptor. To provide evidence that EXTL3 interacts with HIP, an experiment was conducted where human ductal cell line PANG-1 was used as a source of EXTL3. Using an antibody directed against EXTL3, PANC-1 cells were immunostained after being grown under conditions that differentiate these cells into islet-like cells. PANC-1 cells were grown in a standard growth medium containing 10% fetal bovine serum, or in a serum free medium (SFM) or SFM containing HIP.
# The receptor for Human ProIslet Peptide was labeled using a double antibody method in a stable human pancreatic cell line. The first antibody was a rabbit polyclonal and the second was a goat-anti-rabbit labeled with Cy3 fluorescent dye.
# These cells grow normally in serum free media and when treated with trypsin, are destabilized and made competent to undergo developmental changes. Cells were cultured in serum free media (SFM) with and without HIP, and in serum free media with trypsin (TSFM).
# When treated with HIP under stable conditions, no changes result. When treated with HIP under developmentally competent conditions, the labeled receptor responds to the presence of HIP by being encapsulated by the cytoplasmic membrane and moving to the nuclear membrane where the signals for differentiation are received.
# HIP stimulates the receptor membrane bound protein to be engulfed by the cytoplasmic membrane and transported to the nuclear membrane under adjusted exposure.
# EXTL3 = biological target: T2, EXTL3 (Homo sapiens, UniProt O43909); assay: Western blot of EXTL3 in cytosolic and nuclear fractions of PANC-1 cells; format: cell-based; details: PANC-1 cells in SFM; FIG. 14; without HIP nuclear EXTL3 observed at 6 hours
# T2 construct: It was observed that EXTL3 is expressed in PANC-1 cells; endogenous in cells; host or cells: PANC-1 (human pancreatic ductal/epithelioid cell line)
# T2 sequence (O43909 1-919): T1 sequence (O43909 1-919)
# Procedure: Western blot and immunofluorescence analyses of EXTL3 localization were performed in human PANC-1 cells grown under conditions that differentiate these cells into islet-like cells. EXTL3 is predominantly located on the external surface of the cytoplasmic membrane and its structure includes a single transmembrane region located inside of the cytoplasmic membrane. PANC-1 cells were grown in a standard growth medium or in a serum free medium (SFM) containing HIP.
# [3] = tested on: human pancreatic ductal tissue; assay: Insulin levels by radioimmunoassay in human pancreatic ductal fraction cultures; format: cell-based; details: human ductal tissue cultured with peptide; treated day 10 and 12, lysed after 1 week; vs negative control
# Procedure: In Vitro Proof of Concept of HIP Activity. Human pancreatic islet and ductal fractions were cultured over 10 days and then treated in a blinded study. Radioimmunoassay methods were used to measure insulin levels in the human pancreatic cultures treated with a scrambled peptide serving as a negative control, HIP3, HIP1, HIP2 and hamster-derived INGAP serving as a positive control. Peptides were synthesized (95% pure, research grade).
# Duplicate cultures were treated in both ductal and islet fractions of human pancreatic tissue on day 10 and day 12 and then lysed for detection of insulin content after 1 week of treatment HIP peptides, control and INGAP. During 10-day culture, the insulin production goes down and then after treatment with HIP peptides, insulin is produced again.
# The ductal and islet tissue were separated using the Ricordi method. Neither ductal cell nor islet culture was completely homogeneous in nature. […] The studies were repeated with similar findings shown in the following chart, with as much as a four-fold increase in insulin levels by radioimmunoassay among human ductal tissue cultured with HIP2.
# The ductal fraction graph as shown in FIG. 2 depicts the insulin levels on the y axis as measured by radioimmunoassay after incubation in culture with human pancreatic ductal tissue. […]
# [4] = tested on: mice rendered diabetic with streptozotocin; assay: Streptozocin diabetic mouse study of HIP3, HIP1, HIP2 and hamster INGAP; format: in vivo; details: for total islet numbers vs placebo (significance): FIG. 6, p=0.022; for total islet mass vs placebo (significance): FIG. 6, p=0.05; for Total Islet Mass (μm2) / Total Islets: Table 2, initial study; for Total Islets: histology of pancreata; for Total Islet Mass (% increase) / Total Islets (% increase): Table 2, vs placebo; for islet area: placebo 142,394, p=0.05, FIG. 6
# Procedure: In Vivo Studies. HIP3, HIP1, HIP2 and hamster INGAP have been the subject of in vivo studies in mice. […] The subject number was selected to yield a sufficient number of diabetic animals for the study and animals were randomly assigned to study groups. All animals were dosed via intraperitoneal injections twice daily (am and pm) for 28 consecutive days. The timing of dose administration remained consistent (±2 hours) during the dosing phase.
# Mice were injected intraperitoneally with streptozocin at 40 mg/kg in citrate buffer, pH 4.5, on 5 consecutive days in an attempt to render them diabetic. […] If the blood glucose level in any animal rose to above 400 mg/dL, the animal was treated with insulin. Every 3 days, at the same time each day, a nick was made on the tail and a drop of blood was collected. Glucose measurements were determined using a glucose meter. Group assignments and dose levels were as follows in Table 1:
# Study endpoints included the following: changes in glucose; changes in insulin requirements; and histology of post-mortem pancreata.
# [5] = 250 μg intraperitoneal twice daily, 28 days
Molecule,glucose levels during the study (NOD mice),Total Islet Mass (μm2) [1],Total Islets [1],Total Islet Mass (% increase) [1] [%],Total Islets (% increase) [1] [%],cell morphology changes through 7 days (PANC-1 cells),HIP receptor/EXTL3 trafficking from cytoplasmic membrane to nucleus (HIP receptor/EXTL3),EXTL3 translocation by Western blot (EXTL3),"lower mean glucose vs control [4, 5] [%]",total islet numbers vs placebo (significance) [4],total islet mass vs placebo (significance) [4],Total Islet Mass (μm2) [4] [μm2],Total Islets [4],Total Islet Mass (% increase) [4] [%],Total Islets (% increase) [4] [%],islet area [4],also measured
"C[C@@H](O)CCCCn1c(=O)c2c(ncn2C)n(C)c1=O [LSF, lysophylline, reference compound]",gradual elevations in glucose,,,,,,,,,,,,,,,,
Ac-Ile-Gly-Leu-His-Asp-Pro-Thr-Gln-Gly-Thr-Glu-Pro-Asn-Gly-NH2 (Ac-IGLHDPTQGTEPNG-NH2) [HIP2B],steadily improved glucose levels,"416,715 μm2",94,398,168,deviate significantly from their initial appearance,stimulated traffic from the HIP receptor on the cytoplasmic membrane into the nucleus,enhancing EXTL3 translocation from the cytoplasmic membrane to the nucleus,,,,,,,,,"rise in the total number of islets compared to placebo-treated mice ([1]; fold): three-fold; islet number (M) ([1]; mean, SD=32.74, placebo M=31.67, p=0.032): 94; islet mass (M) ([1]; mean, SD=121,389.01, placebo M=127410.67, p=0.040): 416714.67; islet size vs placebo-treated mice ([1]; not statistically significant (t=0.708, p=0.518)): normally sized islets were generated; morphological differences vs control on day 7 (PANC-1 cells; 200×, FIG. 9A): histologically more differentiated cells; insulin expression after treatment [2]: induced insulin expression in otherwise insulin negative cells; interaction with receptor/EXTL3 and trafficking to nucleus, compared with HIP2 (HIP receptor/EXTL3): as effective as HIP2"
IGLHDPTQGTEPNG [HIP2],steadily improved glucose levels,"202,955 μm2",65,143,86,deviate significantly from their initial appearance,stimulated traffic from the HIP receptor on the cytoplasmic membrane into the nucleus,enhancing EXTL3 translocation from the cytoplasmic membrane to the nucleus,29.4,significantly increased total islet numbers,significantly greater total islet mass,2161782,454,153,62,"360,297 μm(2)","increase in insulin levels by radioimmunoassay [3]: four-fold; day by which mice were completely insulin-free ([4]; 250 μg intraperitoneal twice daily, 28 days, FIG. 4): ≤ 21 days"
IGLHDPTQGTEPNGE [HIP3],,,,,,,,,57.3,significantly increased total islet numbers,significantly greater total islet mass,1703513,410,99,46,"283,918 μm(2)",
WIGLHDPTQGTEPNG [HIP1],,,,,,,,,14.7,,,,,,,,
